In patent publication US11892401B2, “Boronic acid appended naphthyl-pyridinium fluorescent saccharide sensors for early detection of gastrointestinal diseases” (The Board of Trustees of the Leland Stanford Junior …, priority 2018, dated 2024):
Like-named read-outs stand apart in the source and are kept apart here.

How the values were obtained:
[1] = Stern-Volmer quenching of HPTS anionic reporter dye; format: binding; conditions: 4 μM HPTS, 0.1 M sodium phosphate buffer pH 7.4, sphere of action quenching model
Method: (§1) Stern-Volmer quenching of HPTS and TSPP anionic reporter dyes: Stock solutions of exemplary boronic acid compounds (1, 3, and 4) were initially prepared in DMS (1 mg/mL) and then diluted in 0.1 M sodium phosphate buffer pH 7.4 to obtain the desired initial 2-fold concentration. Fluorescence measurements were conducted in a 96-well plate (Corning #3694) and to each well were added 20 μL of each exemplary compound and 8 μM of HPTS or TSPP in triplicate. Initial fluorescence wells contained 20 μL of each reporter dye and 20 μL of buffer. Blank wells received 40 μL of buffer only. Measurements were performed using a Tecan infinite M1000 instrument a plate reader (gain 100, flashes 30, z-position 1.8 cm) Plates were shaken for 30 seconds (2 mm orbital amplitude) prior to reading. After blank subtraction, fluorescence intensity relative to initial total fluorescence of HPTS or TSPP (Fo/F) for each sample was calculated.
(§2) Given the cationic character of the subject receptor compounds, their ability to form a non-fluorescent ground state complex with anionic reporter dyes, such as HPTS and TSPP was investigated. The fluorescence quenching of each dye can be quantitatively monitored by Stern-Volmer analysis (Albrecht, C., Anal. Bioanal. Chem. 2008, 390 (5), 1223-1224). Two types of quenching can exist, static quenching, due to complex formation, and dynamic quenching, due to collisional encounters between the dye and quencher. Based on previous work with bis-boronic acid appended viologens (BBV) and their ability to quench HPTS (Cordes, D. B.; Gamsey, S.; Sharrett, Z.; Miller, A.; Thoniyot, P.; Wessling, R. A.; Singaram, B., Langmuir 2005, 21 (14), 6540-6547), a similar quenching mechanism was envisaged for each anionic reporter dye, through static quenching. The effects of adjusting the quencher to dye ratio for HPTS and TSPP with each of compounds 1, 3, and 4 while monitoring the decrease of fluorescence for each dye are shown in FIG. 5, panel A (HPTS) and FIG. 5, panel B (TSPP).
(§3) With each of compounds 1, 3 and 4 only having two cationic groups, it was anticipated anticipated that higher (>400 μM) amounts of each quencher would be required to achieve at least 80% of quenched fluorescence. […] Using the fluorescence data, the quenching efficiency can be determined using the available Stern-Volmer fitting models. The best fit to the Stern-Volmer plots for the exemplary compounds was obtained using the sphere of action quenching model (Eq. 2) (Frank, J. M.; Vavilov, S. I., Z. Phys. 1931, 69, 100-10).
(§4) [formula] Where V is the dynamic quenching constant, Ks is the static quenching constant, [Q] is the concentration of the quencher, and […] is derived from the Poisson distribution. There was higher contribution from the static quenching given the higher static quenching constants compared to the dynamic constants (Table 1).

[2] = Absorption measurements with increasing lactulose; format: physicochemical; conditions: 0.1 M sodium phosphate buffer pH 7.4; 100 μM (1, 2), 50 μM (3, 4)
Method: Absorption measurements of exemplary boronic acid receptor compounds: All absorption measurements were carried out using an Agilent Technologies Cary 60 Vis instrument in a quartz cuvette (1 cm pathlength). Stock solutions (1 mg/mL) of each compound was initially prepared in DMSO and then diluted to the desired concentration in 0.1 M sodium phosphate buffer pH 7.4 which gave minimal DMSO amount of at least 15%. Concentrations for each boronic acid receptor in cuvette are as follows; (1)=100 μM, (2)=100 μM, (3)=50 μM, and (4)=50 µM. Measurements were done in situ by taking the absorbance of each receptor compound in phosphate buffer pH 7.4, then aliquots of buffered 1 M lactulose (0.5-7 μL) was added, shaken for 30 seconds, and the new absorbance was recorded. With reference to FIG. 3, panels A to D, change of absorbance for each receptor compound was monitored as a function of increasing lactulose. […] Each compound provided absorbance maxima between 300-350 nm and with isosbestic points between 330-350 nm for all four receptors. Additionally, the compounds provided molar extinction coefficients of 1.17×10^4 (100 μM), 1.10×10^4 (100 μM), 2.77×10^4 (50 μM), and 5.01×10^4 (50 μM) M^−1 cm^−1 for 1-4 respectively. Without being bound to any particular theory, these absorption changes upon sugar binding at physiological pH for compounds 1-4 is indicative of a possible charge transfer process.

[3] = Stern-Volmer quenching of TSPP anionic reporter dye; format: binding; conditions: 4 μM TSPP, 0.1 M sodium phosphate buffer pH 7.4, sphere of action quenching model
Method: as §1, §2, §3, §4

[4] = Fluorescence recovery of HPTS-receptor probes with 20 sugars; conditions: 4 μM HPTS, optimal Q:D ratio, pH 7.4, 20 sugars
Method: Fluorescence recovery of each anionic reporter dyes: Fluorescence recovery measurements for sugar binding studies were conducted by preparing 96-well plates with the addition of 20 μL of the boronic acid receptor-fluorophore (HPTS or TSPP) probe solution as 2-fold concentrate (for example, 160 μM for (1) & 8 μM HPTS or 800 μM for (1) & 8 μM for TSPP) in 0.1 M sodium phosphate buffer pH 7.4. At the time of running the assay, each well received 20 μL of sample in triplicate. Blank wells were given 40 μL buffer with neither HPTS nor boronic acid receptor compound. Baseline fluorescence wells contained 20 μL of buffer and 20 μL of probe solution. Fluorescence recovery of HPTS was measured on the plate reader. After blank subtraction, fluorescence intensity relative to initial quenched HPTS (F/Fo) for each sample was calculated. Under these conditions, Fo is a non-zero value after background subtraction with about 20% of maximum fluorescence intensity. […]
Each exemplary boronic acid appended naphthyl-pyridinium quencher-dye combination provided unique fluorescent recovery characteristics across all 20 sugars and sugar derivatives analyzed. […]

[5] = Fluorescence emission of receptor compounds with increasing lactulose; conditions: phosphate buffer pH 7.4; for emission maxima: receptor 500 μM; for fluorescence intensity change on initial introduction of lactulose: lactulose 0.5 mM
Method: Fluorescence Measurements of exemplary boronic acid receptor compounds: Stock solutions of each boronic acid receptor compound (1-4) were initially prepared in DMS (1 mg/mL) and then diluted to desired initial 1 mM concentration before adding to the wells. Each lactulose concentration points were prepared in 0.1 M sodium phosphate buffer as 2-fold of the desired final concentration in each well. Each well received 20 μL of each receptor compound and sugar concentration (each data point recorded in triplicates) and the fluorescence measurements were conducted in a 96-well plate (Corning #3694) using a Tecan infinite M1000 instrument a plate reader (gain 100, flashes 30, z-position 1.8 cm) Plates were shaken for 30 seconds (2 mm orbital amplitude) prior to reading.
With reference to FIG. 4, panels A to D, the effect of lactulose on the fluorescent properties of each receptor compound (1-4) was examined in phosphate buffer pH 7.4. Receptor compounds (1) and (2) observed similar emission profiles with emission maxima at 504 and 490 nm, meanwhile the emission maxima for (3) and (4) was 50 nm less which peaked at 440 nm. […] These types of fluorescent changes have been previously observed by Norrild where a pyridinium moiety is directly conjugated to an anthracene core (Eggert, H.; Frederiksen, J.; Morin, C.; Norrild, J. C., Journal of Organic Chemistry 1999, 64 (11), 3846-3852). Without being bound to any particular theory, it was hypothesized that the pyridinium unit in the subject receptor compounds may act as an electron sink for the singlet electron diminishing the fluorescence intensity. Upon boronic acid-sugar recognition and subsequently conversion of the hybridization of the boron atom from sp^2 to anionic sp^3 generating a zwitterion induces an internal charge transfer (ICT)-like mechanism increasing the fluorescence intensity.

[6] = pH profile / pKa by fluorescence spectroscopy; format: physicochemical; conditions: receptor 500 μM (2) or 250 μM (3, 4), fluorescence titration pH 3-10
Method: Titration curves with pH were determined using the following buffer solutions, pH 3-4 acetate buffer; pH 5-8.5 phosphate buffer; and pH 9-10 carbonate buffer. Fluorescence intensity was monitored in the absence or presence of 30 mM lactulose for exemplary receptor compounds, e.g., 2, 500 μM; 3, 250 μM; and (4, 205 µM in the indicated buffer conditions. Stock solutions of each boronic acid receptor compound (2, 3, and 4) were initially prepared in DMS (1 mg/mL) and then diluted in appropriate buffer conditions to obtain the desired initial 2-fold concentration. Fluorescence measurements were conducted in a 96-well plate (Corning #3694) and to each well 30 μL of each receptor compound and buffer media with or without lactulose were added in triplicate. Blank wells received 60 μL of buffer only. Measurements were performed using a Tecan Infinite M1000 instrument, a plate reader (gain 100, flashes 30, z-position 1.8 cm) Plates were shaken for 30 seconds (2 mm orbital amplitude) prior to reading. After blank subtraction, fluorescence intensity relative to initial total fluorescence (at pH 3).
Each pH-profile was fitted with equation S1, where y=normalized intensity, ymax=maximum normalized intensity, ymin=minimum normalized intensity, x=pH value, k=acid dissociation constant and pka values were obtained from this constant (pka=−log k).
Titration curves fitted to equation S1.

[7] = 30 mM lactulose, read-out: pka-with 30 mM lactulose
[8] = aqueous buffer solutions in a 96-well plate, no lactulose, read-out: pKa-absence of lactulose

Row | molar extinction coefficient [2] [M⁻¹ cm⁻¹] | change in fluorescence recovery, HPTS combination [4] [fold] | emission maxima [5] [nm] | pKa [6, 7] | pKa [6, 8] | fluorescence intensity change on initial introduction of lactulose [5] | Compound | HPTS Ks (static quenching constant) [1] | HPTS V (dynamic quenching constant) [1] [M⁻¹] | TSPP Ks (static quenching constant) [3] | TSPP V (dynamic quenching constant) [3] [M⁻¹]
1 | 11700 | ≥ 1.5 | 504 |  |  |  | OB(O)c1cc(C[n+]2ccc(-c3ccc4ccccc4c3)cc2)cc(C[n+]2ccc(-c3ccc4ccccc4c3)cc2)c1 [Compound 1] | 1.01 ± 0.5 × 10^5 M^−1 | 63 ± 15 | 5.24 ± 0.3 × 10^4 M^−1 | 112 ± 46
2 | 11000 |  | 490 | 5.5 ± 0.06 | 7.7 ± 0.08 |  | OB(O)c1ccccc1C[n+]1ccc(-c2ccc3ccccc3c2)cc1.[Br-] [Compound 2, 1-(2-boronobenzyl)-4-(naphthalen-2-yl) pyridinium bromide] |  |  |  | 
3 | 27700 |  | 440 | 5.8 ± 0.1 | 7.8 ± 0.03 | drastic intensity change | OB(O)c1ccccc1C[n+]1ccc(-c2ccc3cc(-c4cc[n+](Cc5ccccc5B(O)O)cc4)ccc3c2)cc1 [Compound 3] | 9.29 ± 0.4 × 10^4 M^−1 | 109 ± 18 | 5.01 ± 0.7 × 10^4 M^−1 | 68 ± 13
4 | 50100 |  | 440 | 5.7 ± 0.05 | 8.2 ± 0.02 | drastic intensity change | OB(O)c1ccccc1C[n+]1ccc(-c2ccc3ccc(-c4cc[n+](Cc5ccccc5B(O)O)cc4)cc3c2)cc1 [Compound 4] | 1.00 ± 0.9 × 10^5 M^−1 | 100 ± 14 | 1.45 ± 0.1 × 10^4 M^−1 | 80 ± 10
